Reference: patent publication US6605424B1, “Method of detecting inhibitors of agonist-specific desensitization” (Duke University, priority 1989, dated 2003)
Blank lines part the entries; values can stand above or below the molecule they belong to. No end group written: not given here.

Key:
[1] = molecular target: protein kinase A (Homo sapiens, UniProt P17612); assay: Peptides as substrates for protein kinase A; format: biochemical
[2] = molecular target: T1, βAR kinase (Bos taurus, UniProt P21146); assay: Phosphorylation of rhodopsin (urea-treated rod outer segments) by βAR kinase; format: biochemical, bovine; conditions: read-out: IC50 (concentration of compound which gave 50% inhibition of βAR kinase); rhodopsin as substrate
T1 construct: βAR kinase was purified from bovine cerebral cortex; from tissue; host or cells: bovine cerebral cortex
T1 sequence (P21146 1-689): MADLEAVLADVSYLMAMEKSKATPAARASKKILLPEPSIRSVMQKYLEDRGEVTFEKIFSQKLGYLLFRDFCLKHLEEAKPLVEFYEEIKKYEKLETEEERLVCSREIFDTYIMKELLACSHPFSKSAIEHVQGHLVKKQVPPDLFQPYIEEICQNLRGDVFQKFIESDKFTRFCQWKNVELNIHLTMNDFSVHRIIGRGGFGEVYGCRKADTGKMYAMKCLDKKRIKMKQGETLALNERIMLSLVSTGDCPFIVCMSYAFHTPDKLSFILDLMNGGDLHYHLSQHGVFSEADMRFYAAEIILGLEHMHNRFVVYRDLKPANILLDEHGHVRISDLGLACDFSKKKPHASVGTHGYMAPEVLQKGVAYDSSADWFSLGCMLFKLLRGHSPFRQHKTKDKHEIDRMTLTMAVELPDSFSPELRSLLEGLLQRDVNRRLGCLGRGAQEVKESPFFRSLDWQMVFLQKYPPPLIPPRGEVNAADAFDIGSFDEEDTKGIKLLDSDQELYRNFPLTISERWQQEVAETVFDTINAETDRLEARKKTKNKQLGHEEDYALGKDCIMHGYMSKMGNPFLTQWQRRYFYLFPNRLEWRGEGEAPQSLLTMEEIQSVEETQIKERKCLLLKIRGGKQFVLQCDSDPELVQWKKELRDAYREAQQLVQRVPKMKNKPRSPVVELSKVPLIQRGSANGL
Experimental: (§1) βAR kinase was purified from bovine cerebral cortex by modification of procedure of Benovic et al (J. Biol. Chem. (1987) 262:9026-9032). Briefly, 250 g of bovine cerebral cortex were homogenized with a Brinkmann tissue disrupter and centrifuged (40,000×g, 30 min). The supernatant was then precipitated with 13-26% ammonium sulfate. This material was initially chromatographed on a Ultrogel AcA34 column equilibrated with 5 mM Tris-HCl, pH 7.5, 2 mM EDTA, 10 μg/ml leupeptin, 5 μg/ml pepstatin, 10 μg/ml benzamidine, 0.2 mM phenylmethylsulfonyl fluoride (buffer A). The peak activity was diluted with an equal volume of buffer A containing 0.04% Triton X-100 before being applied to a DEAE-Sephacel column. Elution was accomplished with a 0-80 mM NaCl gradient in buffer A containing 0.02% Triton X-100. The peak activity was then applied to a CM-Fractogel column and eluted with a 0-100 mM NaCl gradient in buffer A containing 0.02% Triton X-100. The purified kinase is stable at 4° C. for several months. For these studies the βAR kinase preparations were >75% pure.
(§2) Rod outer segments were prepared from bovine retinas by stepwise sucrose gradient centrifugation (Wilden et al Biochemistry (1982) 21:3014-3022). Rhodopsin kinase-free rod outer segments were prepared by treatment with 5 M urea (Shichi et al J. Biol. Chem. (1978) 253:7040-7046) and consisted of ˜95% rhodopsin, as assessed by Coomassie Blue staining of sodium dodecyl sulfate-polyacrylamide gels.
(§3) Urea-treated rod outer segments were phosphorylated with βAR kinase as follows. Urea-treated rod outer segments (˜4 μg of rhodopsin) were incubated with βAR kinase (˜0.1 μg) for 10-15 min at 30° C. in the presence of 40 mM Tris-HCl, pH 7.4, 10 mM NaCl, 5 mM MgCl2, 1.5 mM EDTA, and 65 μM ATP (˜1 cpm/fmol) (total reaction volume was 40 μl). Reactions were stopped by the addition of 40 μl of sodium dodecyl sulfate sample buffer (see below) followed by sodium dodecyl sulfate-polyacrylamide gel electrophoresis. After autoradiography, the phosphorylated rhodopsin bands were excised and counted.
Sodium dodecyl sulfate-polyacrylamide gel electrophoresis was performed by the method of Laemmli (Nature (1970) 227:680-685) using 10% homogeneous polyacrylamide slab gels. Sample buffer contained 8% sodium dodecyl sulfate, 10% glycerol, 5% 3-mercaptoethanol, 25 mM Tris-HCl, pH 6.5, and 0.003% bromphenol blue. After electrophoresis, gels were dried with a Bio-Rad gel dryer prior to autoradiography.

[3] = molecular target: T1, βAR kinase; assay: Reversal of heparin inhibition of βAR kinase by polycations; format: biochemical, bovine; conditions: read-out: EC50 for reversal of heparin inhibition; in the presence of 1.1 μM heparin
Experimental: as §3

[4] = molecular target: T1, βAR kinase; assay: Inhibition of β2AR phosphorylation by βAR kinase by synthetic peptides (Example III); format: biochemical, bovine; conditions: β2AR as substrate; read-out: IC50 (μM), first intracellular loop peptides as inhibitors of βAR kinase
Experimental: FIG. 13. Inhibition of β2AR phosphorylation by synthetic peptides. Reconstituted β2AR (˜0.4 pmol) was incubated for 30 min at 30° with purified βAR kinase (˜30 ng) in the presence of 50 mM Tris-HCl, pH 7.5, 2 mM EDTA, 10 mM NaCl, 5 mM MgCl2, 5 mM sodium phosphate, 50 μM (−)-isoproterenol and 0.10 mM [γ^32P]ATP (2.0 cpm/fmol). Synthetic β2AR peptides were varied from 0 to 1 mM and included CI (Δ), CII (▴), CIII-2 (◯) and CT-1 (●). Reactions were stopped by the addition of […]. ^32P-labeled receptor was determined by cutting and counting the dried gel following autoradiography.
The β2-adrenergic receptor from hamster lung was purified to apparent homogeneity by sequential affinity and high performance liquid chromatography as described (Benovic et al (1984) Biochemistry 23:4510-4518). The purified receptor was reinserted into phosphatidylcholine vesicles as previously described (Cerione et al (1983) Nature 306:562-566). The protein-lipid pellets were resuspended in 20 mM Tris-HCl, pH 7.2, 2 mM EDTA and used as a substrate for the βAR kinase.
βAR kinase was purified from bovine cerebral cortex by modification of a previously described procedure (Benovic et al (1987) J. Biol. Chem. 262:9026-9032). Briefly, 250 g of bovine cortex was homogenized and the resulting high speed supernatant fraction was precipitated with 13-26% ammonium sulfate. This material was initially chromatographed on an Ultrogel AcA34 column equilibrated with 5 mM Tris-HCl, pH 7.5, 2 mM EDTA, 5 μg/ml leupeptin, 5 μg/ml pepstatin, 15 μg/ml benzamidine, 0.2 mM phenylmethyl sulfonyl fluoride (buffer A). The peak activity was diluted 1:1 with buffer A containing 0.02% triton X-100 and applied to a DEAE Sephacel column. Elution was accomplished with a 0-80 mM NaCl gradient in buffer A containing triton X-100. The peak activity was then applied directly to a CM Fractogel column and eluted with a 0-100 mM NaCl gradient in buffer A containing triton X-100. The purified kinase was stored at 4° C.
The inhibition of substrate phosphorylation by βAR kinase in the presence of synthetic peptides was assayed as follows. Reconstituted βAR (0.2-1 pmol/inclubation) was incubated with βAR kinase (10-30 ng) in a buffer containing 50 mM Tris-HCl, pH 7.5, 2 mM EDTA, 10 mM NaCl, 5 mM MgCl2, 5 mM sodium phosphate, 50 μM (−)-isoproterenol, 0.10 mM [γ-^32P]ATP (1-3 cpm/fmol) at 30° C. for 30 min. Synthetic β2AR peptides were varied in concentration from 0 to 2 mM. Reactions were quenched by the addition of SDS sample buffer followed by gel electrophoresis. In some experiments urea treated rod outer segments (Wilden et al (1982) Biochemistry 21:3014-3022; Shichi et al (1978) J. Biol. Chem. 253:7040-7046) were used as the substrate for βAR kinase. To further define the specificity of the peptide inhibition, phosvitin, casein (see Example I) and the synthetic peptides CT-2 and CT-3 were used as substrates for βAR kinase.
SDS polyacrylamide gel electrophoresis was performed by the method of Laemmli (Nature (1970) 227:[…]) using 10 or 15% homogeneous slab gels. SDS sample buffer contained 8% SDS, 10% glycerol, 5% β-mercaptoethanol, 25 mM Tris-HCl, pH 6.5 and 0.003% bromphenol blue. SDS urea polyacrylamide gel electrophoresis was carried out using 6.5 M urea, 0.1% SDS, 100 mM H3PO4, pH 6.8 with Tris-HCl and 9% acrylamide (Swank et al (1971) Anal. Biochem. 39:462). SDS urea sample buffer contained 1% SDS, 8M urea, 10 mM H3PO4, pH 6.8 with Tris-HCl, 1% β-mercaptoethanol and 0.003% bromphenol blue.

[5] = test system: β2ARs in intact A431 cells; assay: Desensitization of β2ARs in intact A431 cells; format: cell-based, human; conditions: data not shown
[6] = molecular target: T1, βAR kinase; assay: Phosphorylation of purified reconstituted β2ARs by purified βAR kinase (Example II); format: biochemical, bovine
Experimental: FIG. 7. […] (Inset) Relevant section of a representative autoradiogram. Data are means±SEM of three independent experiments. […] Desensitization was measured as the percent loss of stimulation by 10 μM (−)-isoproterenol of adenylyl cyclase activity in membranes. […] Data are means±SEM of four independent experiments.
Purified β2ARs were inserted into phosphatidylcholine vesicles by chromatography on Extracti-gel, followed by polyethylene glycol treatment and centrifugation at 280,000×g for 90 min (Cerione et al (1984) Biochemistry 23:4519-4525). Phosphorylation of the reconstituted receptors by purified βAR kinase was done in the presence of 50 μM (−)-isoproterenol as described (Benovic et al (1987) J. Biol. Chem. 262:9026-9032). Subsequently, the samples were subjected to sodium dodecyl sulfate polyacrylamide gel electrophoresis on 10% gels (Laemmli (1970) Nature 227:680-685). The phosphorylated β2ARs were visualized by autoradiography, and the corresponding bands were cut out and their content of ^32P quantified.

[7] = test system: β2ARs in permeabilized A431 cells; assay: Desensitization of β2ARs in permeabilized A431 cells; format: cell-based, human; conditions: for Inhibition of Desensitization, %: 100 μM
Experimental: Permeabilization of cells was accomplished as follows. Human epidermoid carcinoma A431 cells were grown to about 95% confluence in Dulbecco's modified Eagle's medium supplemented with 10% fetal calf serum. Cells were harvested with collagenase, washed three times with calcium-free phosphate-buffered saline (PBS), then washed twice in 150 mM potassium glutamate/10 mM Hepes/5 mM EGTA/7 mM MgCl2, pH 7.1 (KG buffer), and finally resuspended in KG buffer supplemented with 5 mM glucose and 2 mM ATP (KG-A buffer) at a density of 4×10^7 cells per ml.
At 4×10^7 cells per ml, about 0.015% digitonin was necessary to achieve permeabilization of >95% cells as assessed by staining with trypan blue. In all experiments, digitonin was added stepwise until >95% of the cells were trypan blue positive.

[8] = molecular target: protein kinase C and cyclic nucleotide-dependent protein kinases; conditions: cited from earlier work
[9] = substrate: CC[C@H](C)[C@H](NC(=O)[C@H](Cc1ccc(O)cc1)NC(=O)[C@H](CC(N)=O)NC(=O)[C@H](CC(C)C)NC(=O)[C@@H]1CCCN1C(=O)[C@@H](NC(=O)[C@H](CCCNC(=N)N)NC(=O)[C@H](CC(C)C)NC(=O)[C@H](CCCCN)NC(=O)[C@H](CCCCN)NC(=O)[C@H](Cc1c[nH]cn1)NC(=O)[C@H](CCC(N)=O)NC(=O)[C@@H](NC(=O)[C@@H](NC(=O)[C@@H](N)C(C)C)[C@@H](C)O)C(C)C)[C@@H](C)O)C(=O)O; assay: Phosphorylation of rhodopsin (urea-treated rod outer segments) by βAR kinase; format: biochemical, bovine; conditions: other: rhodopsin as substrate, absence of heparin; 30.0 °C
Experimental: as §1, with “The peak activity was then applied to a CM-Fractogel column and eluted with a 0-100 mM NaCl gradient in buffer A containing 0.02% Triton X-100. The purified kinase is stable at 4° C. for several months. For these studies the βAR kinase preparations were >75% pure.” left out
as §2
Urea-treated rod outer segments were phosphorylated with βAR kinase as follows. […] After autoradiography, the phosphorylated rhodopsin bands were excised and counted. […]

substrate for protein kinase A [1]: serve as substrates for protein kinase A
Molecule: QELLCLRRSSSKAYGNGYS [CT-1 (337-355)]

Molecule: polylysine
IC50 [2]: ~69 µM
EC50 [3]: ~2.8 µM

IC50 [4]: 62 µM
inhibition at 100 µM ([6]; 100 μM): 80 ± 13%
Molecule: AIAKFERLQTVTNYF [β2AR-(57-71)]
effect on desensitization in intact cells [5]: Neither compound affected desensitization
Inhibition of Desensitization, % [7]: 52 ± 12%
effect on time course of desensitization ([7]; 100 μM peptide, 1 μM (−)-isoproterenol): markedly slowed the rate of desensitization

inhibition at 1 µM ([6]; 1 μM): 3 ± 4%
inhibition at 10 µM ([6]; 10 μM): 2 ± 7%
Inhibition of βAR kinase, % ([6]; 100 μM): 19 ± 6%
inhibition at 100 µM ([6]; 100 μM): ~20%
Molecule: CC1CNCCN1S(=O)(=O)c1cccc2cnccc12 (stereo not drawn) [Peptide H7, 1-5(isoquinolinesulfonyl)-2-methylpiperazine]
Ki [8]: ~5 µM
Inhibition of Desensitization, % [7]: 22 ± 14%
inhibition at 1 µM ([7]; Homo sapiens, A-431, 1 μM): 0%
inhibition at 10 µM ([7]; Homo sapiens, A-431, 10 μM): 7 ± 5%
inhibition at 100 µM ([7]; Homo sapiens, A-431, 100 μM): ~20%

B1: βAR kinase (Bos taurus) (protein)
chain: T1 sequence (P21146 1-689)
notes: βAR kinase was purified from bovine cerebral cortex; from tissue; host or cells: bovine cerebral cortex
Km [9]: 5.3 µM
